Test results reported in paper doi:10.1101/2023.02.27.530254, “Large library docking for cannabinoid-1 receptor agonists with reduced side effects” (bioRxiv, 2024).
Like-named read-outs stand apart in the source and are kept apart here.

Key:
CB1 = target: T1, CB1 (Rattus norvegicus, UniProt P20272); assay: Radioligand competition binding with [3H]-CP-55,940, rat brain membranes; settings: for Emax / rCB1 binding Emax [SEM]: maximal radioligand displacement; for Emax: read-out: rCB1 binding Emax [SEM]; for Ki / rCB1 binding pKi [95% CI]: [3H]-CP-55,940 competition, rat brain membranes
T1 construct: membrane preparations from rat brain (source of CB1); tissue Bioivt RAT00BRAINMZN; host or cells: rat brain
T1 sequence (P20272 whole entry): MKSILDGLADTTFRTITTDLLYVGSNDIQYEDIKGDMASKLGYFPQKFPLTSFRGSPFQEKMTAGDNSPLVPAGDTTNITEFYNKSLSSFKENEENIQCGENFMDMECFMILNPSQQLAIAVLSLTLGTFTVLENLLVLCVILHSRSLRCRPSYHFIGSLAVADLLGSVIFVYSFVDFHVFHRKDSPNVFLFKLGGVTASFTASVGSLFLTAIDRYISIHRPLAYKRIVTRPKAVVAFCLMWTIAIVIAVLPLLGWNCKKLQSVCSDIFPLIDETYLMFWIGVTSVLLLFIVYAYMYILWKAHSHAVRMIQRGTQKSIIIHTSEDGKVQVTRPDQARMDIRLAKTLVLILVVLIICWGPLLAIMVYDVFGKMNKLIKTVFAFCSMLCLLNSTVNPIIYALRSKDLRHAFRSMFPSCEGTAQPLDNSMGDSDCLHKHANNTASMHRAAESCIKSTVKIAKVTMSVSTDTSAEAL
Method: The results were analyzed using nonlinear regression to determine the IC50 and Ki values for each ligand (Prism by GraphPad Software, Inc., San Diego, CA). The Ki values are expressed as the mean of two to three experiments each performed in triplicate.

hCB1 = hCB1 (Homo sapiens, UniProt P21554); assay: bioSens-All ebBRET effector biosensor signaling profiling, HEK293; format: cell-based; set-up: host or cells: HEK293 (HEK293SL clone), transient
Sequence of hCB1 (P21554 whole entry, the tested form may be a part): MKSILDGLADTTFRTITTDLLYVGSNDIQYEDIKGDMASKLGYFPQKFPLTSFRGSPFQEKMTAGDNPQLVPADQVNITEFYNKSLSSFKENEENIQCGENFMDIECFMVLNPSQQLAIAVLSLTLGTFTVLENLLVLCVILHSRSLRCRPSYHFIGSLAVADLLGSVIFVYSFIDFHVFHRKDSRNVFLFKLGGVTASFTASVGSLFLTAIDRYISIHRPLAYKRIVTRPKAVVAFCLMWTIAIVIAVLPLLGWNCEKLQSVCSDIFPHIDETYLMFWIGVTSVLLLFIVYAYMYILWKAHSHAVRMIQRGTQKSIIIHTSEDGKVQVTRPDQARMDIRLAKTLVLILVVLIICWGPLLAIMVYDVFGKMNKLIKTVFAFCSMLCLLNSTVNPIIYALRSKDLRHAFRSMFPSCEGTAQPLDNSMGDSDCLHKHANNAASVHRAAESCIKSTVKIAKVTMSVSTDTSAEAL
Method: ebBRET-based effector membrane translocation biosensor assays were conducted at Domain Therapeutics NA Inc. (Montreal, QC, Canada) as previously described. […] HEK293 cells were maintained in Dulbecco’s Modified Eagle Medium (DMEM) (Wisent) supplemented with 1% penicillin- streptomycin (Wisent) and 10% (or 2 % for transfection) fetal bovine serum (Wisent) at 37°C with 5% CO2. All biosensor-coding plasmids and related information are the property of Domain Therapeutics NA Inc. The total amount of transfected DNA was adjusted and kept constant at 1 μg per mL of cell culture to be transfected using salmon sperm DNA (Invitrogen) as ‘carrier’ DNA, PEI (polyethylenimine 25 kDa linear, PolyScience) and DNA (3:1 ml PEI:mg DNA ratio) were first diluted separately in 150 mM NaCl then mixed and incubated for at least 20 minutes at room temperature to allow for the formation of DNA/PEI complexes. During the incubation, HEK293 cells were detached, counted, and re-suspended in maintenance medium to a 350,000 cells per mL density. At the end of the incubation period, the DNA/PEI mixture was added to the cells. Cells were finally distributed in 96-well plates (White Opaque 96-well /Microplates, Greiner) at a density of 35,000 cells per well. Forty-eight hours post-transfection, medium was aspirated and replaced with 100 μl of Hank’s Balanced Salt Solution buffer (HBSS) (Wisent) per well using 450-Select TS Biotek plate washer. After 60 min incubation in this medium, 10 μL of 10 μM e-Coelenterazine Prolume Purple (Methoxy e-CTZ) (Nanolight) was added to each well for a final concentration of 1 μM immediately followed by addition of increasing concentrations of the test compounds to each well using the HP D300 digital dispenser (Tecan). All compounds were assayed at 22 concentrations with each biosensor after a 10-minute room temperature incubation period. […] All BRET ratios were standardized using the universal BRET (uBRET) equation: uBRET=BRETratio-A/B-A×10,000 where A is the BRET ratio obtained from transfection of negative control and B is the BRET ratio obtained from transfection of positive control. […] The data were analyzed using the four-parameter logistic non-linear regression model in GraphPad Prism 9.1 and data were presented as means ± CIs of 1–4 independent experiments.
The SEM was calculated for the logEmax/EC50 ratios using the following equation: SEM=σ/n where σ is the standard deviation, and n is the number of experiments.

[1] = read-out: rCB1 binding Ki [95% CI]
[2] = HEK293, read-out: hCB1 Gi1 Emax [95% CI]
[3] = HEK293, read-out: hCB1 GoB Emax [95% CI]
[4] = HEK293, read-out: hCB1 Gz Emax [95% CI]

CC(=O)C(C)(NC(=O)c1cc(C)n(-c2cccc(C(F)(F)F)c2)n1)c1cccs1 (stereo not shown) [‘4156]
Emax (CB1): 91%
Ki (CB1; rCB1 binding Ki [95% CI]): 13.5 nM

Cc1cc(C(=O)N(C)C(c2ccco2)c2ccco2)nn1-c1cccc(C(F)(F)F)c1 [‘4388]
rCB1 binding pKi [95% CI] (CB1): 5.9 [5.7 – 6.0]
rCB1 binding Emax [SEM] (CB1): 113%
Ki (CB1; [1]): 1360 nM

Cc1cc(C(=O)NC(C)(c2ccco2)c2ccco2)nn1-c1cccc(C(F)(F)F)c1 [‘4936]
Emax (CB1): 88%
Ki (CB1; rCB1 binding Ki [95% CI]): 7.5 nM

Cc1nn(Cc2ccc(Cl)cc2)c(C)c1C(=O)OCC1CSc2ccccc2O1 (stereo not shown) [‘5463]
Emax (CB1): 88%
Ki (CB1; rCB1 binding Ki [95% CI]): 825 nM
Emax (hCB1; [2]): 31%
Emax (hCB1; [3]): 32%
EC50 (hCB1; hCB1 Gi1 EC50 [95% CI]): 4940 nM
EC50 (hCB1; hCB1 GoB EC50 [95% CI]): 7470 nM

Cc1cc(C(=O)NC(C)(c2ccccc2)c2ccco2)nn1-c1cccc(C(F)(F)F)c1 (stereo not shown) [‘5806]
Emax (CB1): 100%
Ki (CB1; rCB1 binding Ki [95% CI]): 8 nM

COC(=O)[C@@H](c1cccs1)N(C)C(=O)c1cc(C)n(-c2cccc(C(F)(F)F)c2)n1 [‘6000]
Emax (CB1): 96%
Ki (CB1; rCB1 binding Ki [95% CI]): 1460 nM

COC(=O)C(c1ccco1)N(C)C(=O)c1cc(C)n(-c2cccc(C(F)(F)F)c2)n1 (stereo not shown) [‘6425]
Emax (CB1): 108%
Ki (CB1; rCB1 binding Ki [95% CI]): 934 nM

COC(=O)[C@@H]1[C@@H]2CC[C@@H]2CN1C(=O)c1cc(C)n(-c2cccc(C(F)(F)F)c2)n1 [‘6448]
rCB1 binding pKi [95% CI] (CB1): 6.1 [5.9 – 6.3]
rCB1 binding Emax [SEM] (CB1): 103%
Ki (CB1; [1]): 866 nM
hCB1 Gi1 pEC50 [95% CI] (hCB1; Gi1 sensor): 6.5 [6.4 – 6.5]
hCB1 Gi1 Emax [95% CI] (hCB1; Gi1 sensor, normalized to CP-55,940): 87 [86 – 88]
hCB1 GoB pEC50 [95% CI] (hCB1; GoB sensor): 6.5 [6.4 – 6.6]
hCB1 GoB Emax [95% CI] (hCB1; GoB sensor, normalized to CP-55,940): 90 [87 – 91]
hCB1 Gz pEC50 [95% CI] (hCB1; Gz sensor): 6.1 [5.9 – 6.4]
hCB1 Gz Emax [95% CI] (hCB1; Gz sensor, normalized to CP-55,940): 151 [130 –172]
EC50 (hCB1; read-out: hCB1 Gi1 EC50 [95% CI], Gi1 sensor): 345 nM
EC50 (hCB1; read-out: hCB1 GoB EC50 [95% CI], GoB sensor): 310 nM
EC50 (hCB1; read-out: hCB1 Gz EC50 [95% CI], Gz sensor): 728 nM

CC(=O)C(c1cccs1)N(C)C(=O)c1cc(C)n(-c2cccc(C(F)(F)F)c2)n1 (stereo not shown) [‘6829]
Emax (CB1): 106%
Ki (CB1; rCB1 binding Ki [95% CI]): 1050 nM
Emax (hCB1; [2]): 68%
Emax (hCB1; [3]): 49%
Emax (hCB1; [4]): 70%
EC50 (hCB1; hCB1 Gi1 EC50 [95% CI]): 4060 nM
EC50 (hCB1; hCB1 GoB EC50 [95% CI]): 1010 nM
EC50 (hCB1; hCB1 Gz EC50 [95% CI]): 1350 nM

Cc1nc(CC2CC2)oc1-c1nc(Cc2cc3c(cc2Br)OCO3)no1 [‘7019]
Ki (CB1; rCB1 binding Ki [95% CI]): 4040 nM

Cc1c(C(=O)OCC2CSc3ccccc3O2)cnn1Cc1ccccc1 (stereo not shown) [‘7800]
Ki (CB1; rCB1 binding Ki [95% CI]): 1010 nM
Emax (hCB1; [2]): 34%
Emax (hCB1; [3]): 21%
EC50 (hCB1; hCB1 Gi1 EC50 [95% CI]): 6790 nM
EC50 (hCB1; hCB1 GoB EC50 [95% CI]): 597 nM

COC(=O)C(NC(=O)c1cc(-c2ccccc2)n(-c2cccc(C(F)(F)F)c2)n1)c1cccs1 (stereo not shown) [‘8079]
Emax (CB1): 104%
Ki (CB1; rCB1 binding Ki [95% CI]): 18.5 nM

Cc1cc(C(=O)NC(c2ccccc2)c2ccco2)nn1-c1cccc(C#N)c1 (stereo not shown) [‘12565]
Emax (CB1): 97%
Ki (CB1; rCB1 binding Ki [95% CI]): 301 nM
Emax (hCB1; [2]): 28%
Emax (hCB1; [3]): 25%
Emax (hCB1; [4]): 51%
EC50 (hCB1; hCB1 Gi1 EC50 [95% CI], Gi1 sensor): 104 nM
EC50 (hCB1; hCB1 GoB EC50 [95% CI], GoB sensor): 44.8 nM
EC50 (hCB1; hCB1 GoB pEC50 [95% CI], GoB sensor): 39.8 nM
EC50 (hCB1; hCB1 Gz EC50 [95% CI], Gz sensor): 54.6 nM

COC(=O)C(NC(=O)c1cc(C)n(-c2cccc(C#N)c2)n1)c1ccsc1 (stereo not shown) [‘31604]
Emax (CB1): 100%
Ki (CB1; rCB1 binding Ki [95% CI]): 801 nM
